The structures appear in SMILES notation.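 Values below derive from 48-hour exposures of cells grown in 96-well plates, with endpoints linearly interpolated between the two concentrations bracketing the appropriate inhibition level. The concentration for 50% growth inhibition is given as GI50. TGI: concentration producing complete growth inhibition.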

Some test systems named below: OVCAR-5 ovarian; HCT-116 colon; NCI-H226 lung; OVCAR-3 ovarian; OVCAR-4 ovarian; NCI-H522 lung; SN12C renal; BT-549 breast; DU-145 prostate; MCF7 breast.
Holding throughout (test): growth of human tumour cells (NCI), 48 h

For `CCOC(=O)/C=C/n1c2ccccc2c(=O)c2cc(OC)ccc21`, the TGI in the test with OVCAR-5 ovarian, in the test on HCT-116 colon, in the test on NCI-H226 lung, in the test with OVCAR-3 ovarian, in the test with OVCAR-4 ovarian and in the test with NCI-H522 lung was over 100 µM each time. Besides, the TGI with SN12C renal was over 100 µM.
Regarding `Cc1nc2cn3c(c2c(=O)[nH]1)CCCCC3`, the TGI in the test with HCT-116 colon, in the test on NCI-H226 lung, with OVCAR-4 ovarian, in the test with BT-549 breast, in the test on DU-145 prostate and in the test on MCF7 breast was over 100 µM throughout.
Turning to `O=C(O)c1cc2ccccc2c(Cc2c(O)c(C(=O)O)cc3ccccc23)c1O`, the TGI in the test with OVCAR-5 ovarian, in the test with HCT-116 colon, with NCI-H226 lung, in the test with OVCAR-3 ovarian, in the test on OVCAR-4 ovarian and with NCI-H522 lung was over 100 µM in each case. Further, the TGI with BT-549 breast, in the test on DU-145 prostate and with SN12C renal was over 100 µM in each case.
Take `O=c1oc2cc(O)ccc2c2[nH]c3cc(O)ccc3c12`: the TGI in the test with HCT-116 colon was 31.5 µM; in the test with NCI-H226 lung it was 78 µM; in the test with OVCAR-3 ovarian, 56.5 µM; in the test with OVCAR-4 ovarian, 99.6 µM; in the test with NCI-H522 lung it was 32.9 µM; with SN12C renal, over 100 µM.
As for `N#C/C(=C\c1ccc(O)c(O)c1)c1c(C#N)c(N)nn1-c1ccccc1`, the TGI was over 100 µM in the test with OVCAR-5 ovarian; 19.6 µM with HCT-116 colon; 6.63 µM with OVCAR-3 ovarian; 38.7 µM in the test with OVCAR-4 ovarian; 13.2 µM in the test on NCI-H522 lung; 39.4 µM in the test with SN12C renal.
With `CCOC(=O)NN(C(=O)OCC)c1ccc(N=Nc2ccc(OC)cc2)n1C`, the TGI is over 100 µM with OVCAR-5 ovarian; 34.4 µM in the test with HCT-116 colon; 97.2 µM in the test with NCI-H226 lung; 53.2 µM in the test with OVCAR-3 ovarian; over 100 µM in the test on OVCAR-4 ovarian; 60.4 µM in the test on NCI-H522 lung. For the same compound, the results for the TGI in the test on MCF7 breast and with SN12C renal were 31.8 µM and over 100 µM, respectively.
With `Cc1cc(N(CCC#N)S(=O)(=O)c2ccccc2)ccc1C=Nc1cccc(C(=O)O)c1`, the TGI with OVCAR-5 ovarian, in the test with HCT-116 colon, in the test with NCI-H226 lung, in the test on OVCAR-3 ovarian, with OVCAR-4 ovarian and in the test with NCI-H522 lung was over 100 µM throughout. This compound showed a TGI in the test on SN12C renal of over 100 µM.
Consider `COc1ccc(CN(CCN(C)C)c2ccccn2)cc1` (tested in a mixture with another compound), for which the TGI with OVCAR-5 ovarian, with OVCAR-3 ovarian, in the test on NCI-H522 lung and in the test on SN12C renal was over 100 µM in each case.
In the case of `CC(=O)c1ccc(N2C(=O)C3c4[nH]c5ccccc5c4C4CCC(C(C)(C)C)CC4C3C2=O)cc1` (stereo not drawn), the TGI with HCT-116 colon is 30.7 µM; with NCI-H226 lung, 47.6 µM; with OVCAR-4 ovarian it was 94.8 µM; in the test with NCI-H522 lung it was 61.9 µM; with SN12C renal, 32.8 µM.
As for `[N-]=[N+]=CC(=O)C1(C(=O)C=[N+]=[N-])CC1`, the TGI with OVCAR-5 ovarian, in the test on HCT-116 colon, with NCI-H226 lung, in the test with OVCAR-3 ovarian, in the test with OVCAR-4 ovarian and with NCI-H522 lung was over 100 µM throughout. The TGI in the test with SN12C renal is over 100 µM.
Consider `CCN(CC)CC1CCCCN1CC(=O)N1c2cc(Cl)ccc2NC(=O)CC1C` (stereo not drawn), for which the TGI in the test on OVCAR-5 ovarian, in the test on HCT-116 colon, with NCI-H226 lung, in the test on OVCAR-3 ovarian, in the test on OVCAR-4 ovarian and in the test on NCI-H522 lung was over 100 µM throughout. For the same compound, in the test on SN12C renal, the TGI was over 100 µM.
For `O=C(N/N=C(/COc1ccccc1)N=Cc1ccncc1)c1ccncc1`, the TGI in the test with OVCAR-5 ovarian, in the test with HCT-116 colon, with OVCAR-3 ovarian, with OVCAR-4 ovarian, in the test on BT-549 breast and with DU-145 prostate was over 100 µM throughout. Besides, the TGI in the test on MCF7 breast and in the test with SN12C renal was over 100 µM throughout.
For `COC1(OC)CC2C(=O)N(Cc3ccccc3)C1C(S(=O)(=O)c1ccccc1)C2C(C)S(=O)(=O)c1ccccc1` (stereo not drawn), the TGI in the test on OVCAR-5 ovarian, in the test on HCT-116 colon, with OVCAR-3 ovarian, with OVCAR-4 ovarian, with NCI-H522 lung and in the test on SN12C renal was over 100 µM throughout.
On to `C1=N[C@]23C(=N[C@H](N=C2NCc2ccco2)[C@]24N=CNC2=N[C@H]3N=C4NCc2ccco2)N1`, for which the GI50 in the test on OVCAR-5 ovarian is over 100 µM; in the test on HCT-116 colon, over 100 µM; in the test on NCI-H226 lung, 65.4 µM; in the test on OVCAR-3 ovarian, over 100 µM; with OVCAR-4 ovarian, 65 µM; in the test on NCI-H522 lung it was over 100 µM. Besides, the GI50 in the test on DU-145 prostate, in the test on MCF7 breast and with SN12C renal was over 100 µM in each case. The TGI in the test on OVCAR-5 ovarian, in the test on HCT-116 colon, in the test with NCI-H226 lung, in the test with OVCAR-3 ovarian, with OVCAR-4 ovarian and in the test with NCI-H522 lung was over 100 µM in each case. Also, the TGI in the test on DU-145 prostate, in the test on MCF7 breast and with SN12C renal was over 100 µM throughout.
Take `CC1CC(=O)Nc2ccc(Cl)cc2N1C(=O)CN1CCC(CCCCN(C)C)CC1` (stereo not drawn): the TGI in the test on OVCAR-5 ovarian, in the test on HCT-116 colon, in the test on NCI-H226 lung, in the test with OVCAR-3 ovarian, in the test with OVCAR-4 ovarian and in the test with SN12C renal was over 100 µM throughout.
For `CCOC(=O)COc1cc(-c2ccccc2F)nc2cc3c(cc12)OCO3`, the TGI in the test with OVCAR-5 ovarian, in the test with HCT-116 colon, in the test on NCI-H226 lung, in the test with BT-549 breast, in the test on DU-145 prostate and in the test on MCF7 breast was over 100 µM throughout. The TGI in the test on SN12C renal is over 100 µM.
Take `Cc1ccc(S(=O)(=O)NC(=O)C2S(=O)(=O)OCCOS2(=O)=O)cc1`: the TGI in the test on HCT-116 colon, in the test on NCI-H226 lung, in the test with OVCAR-3 ovarian, with OVCAR-4 ovarian, with NCI-H522 lung and with SN12C renal was over 100 µM each time.

Source of the values: PubChem BioAssay (NCI).
